Data set [1] deals with curettage specimens of endometrial cancer patients. As to conditions: i.m. twice weekly 3-7 weeks after polyestradiol phosphate 80 mg; all 12 patients; cited from earlier work.
For data set [2], the system named is estrogen-primed immature rabbits. As to conditions: cited from earlier work.
The test system of data set [3] is endometrium of estrogen-primed ovariectomized or climacteric women. As to conditions: oral; cited from earlier work.
Another data set relates to cycling rats. Particulars: literature; cited from earlier work.
Data set [4] concerns the target T1, Cytosol Progesterone Receptor of the Estrogen-primed Immature Rabbit Uterus (Oryctolagus cuniculus, UniProt P06186).
T1 construct: cytosol progesterone receptor of the estrogen-primed immature rabbit uterus; tissue Dutchland Laboratories, Inc., Denver, Pa (animals); host or cells: uterus cytosol of estradiol-treated immature female New Zealand White rabbits
T1 sequence (P06186 1-930): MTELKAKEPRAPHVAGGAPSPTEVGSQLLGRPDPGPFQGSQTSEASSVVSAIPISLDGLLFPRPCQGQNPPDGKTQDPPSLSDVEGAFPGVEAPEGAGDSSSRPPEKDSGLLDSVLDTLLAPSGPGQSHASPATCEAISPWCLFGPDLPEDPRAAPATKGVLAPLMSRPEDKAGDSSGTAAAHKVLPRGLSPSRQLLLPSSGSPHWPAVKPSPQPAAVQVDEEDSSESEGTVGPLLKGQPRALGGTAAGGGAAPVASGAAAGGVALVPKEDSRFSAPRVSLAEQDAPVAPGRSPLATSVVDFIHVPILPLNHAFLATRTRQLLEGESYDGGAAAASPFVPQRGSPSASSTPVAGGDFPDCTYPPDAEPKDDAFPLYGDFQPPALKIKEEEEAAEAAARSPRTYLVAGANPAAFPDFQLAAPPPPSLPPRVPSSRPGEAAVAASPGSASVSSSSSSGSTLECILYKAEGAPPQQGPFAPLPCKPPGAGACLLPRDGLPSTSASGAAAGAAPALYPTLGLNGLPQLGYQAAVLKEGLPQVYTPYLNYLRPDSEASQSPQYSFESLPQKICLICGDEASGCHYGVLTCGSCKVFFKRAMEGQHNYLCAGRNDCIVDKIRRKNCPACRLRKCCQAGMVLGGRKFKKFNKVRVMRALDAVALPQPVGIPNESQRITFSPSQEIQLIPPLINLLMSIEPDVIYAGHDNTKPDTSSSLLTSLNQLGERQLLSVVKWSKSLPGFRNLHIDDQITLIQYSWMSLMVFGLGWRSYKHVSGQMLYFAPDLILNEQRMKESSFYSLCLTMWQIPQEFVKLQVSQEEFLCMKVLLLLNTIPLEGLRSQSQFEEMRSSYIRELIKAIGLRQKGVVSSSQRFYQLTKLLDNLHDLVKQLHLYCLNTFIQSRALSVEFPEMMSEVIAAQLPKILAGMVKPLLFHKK
In words: Relative binding affinity for progesterone receptor (competition with 3H-progesterone). Also on record: species or system rabbit (New Zealand White). Particulars: 16-18 hour incubation, progesterone = 100.

For data set [5] the following is noted: in vivo; cited from earlier work.

Each structure is given as a SMILES string. Where two headings read alike, the source gives them in different places.

The values that follow come from patent US4512986A, “Progrestationally active steroids” (priority 1983, dated 1985).

As to `CCCCCC(=O)O[C@]1(C(C)=O)CC[C@H]2[C@@H]3CCC4=CC(=O)CC[C@]4(C)[C@H]3CC[C@@]21C` [17α-hydroxyprogesterone caproate], the “inhibition of nucleic acid synthesis, in words” value in data set [1] is “Significant inhibition of nucleic acid synthesis”.

Consider `C#C[C@]1(O)CC[C@H]2[C@@H]3CCC4=CC(=O)CC[C@@H]4[C@H]3CC[C@@]21CC` (relative stereo) [(±)Norgestrel], for which the entries for the “Threshold or effective dose, Clauberg Assay” value in data set [2] (oral) and in data set [2] (s.c. (i.m.)) were 0.03-0.1 mg/animal and 0.03 mg/animal, respectively. In data set [3], the “Threshold or effective dose, Kaufman Assay” value is listed as 12 mg/cycle. Besides, the “effectiveness in suppressing ovulation relative to progesterone (Beattie and Corbin 1975), in words” value with cycling rats is on record as “five times as effective as progesterone”.

In the case of `CC(=O)O[C@]1(C(C)=O)CC[C@H]2[C@@H]3CCC4=CC(=O)CC[C@]4(C)[C@H]3CC[C@@]21C` [17α-Acetoxyprogesterone (Prodox ®), 17α-Acetoxyprogesterone, reference compound], the results for the RBA in data set [4] (Assay 5) and in data set [4] (Assay 6) were 122% and 114%, respectively. The “thromboembolic episodes, in words” value in data set [5] is “higher rate of thromboembolic episodes”.

Consider `CCCCCC(=O)O[C@]1(C(C)=O)CC[C@H]2[C@@H]3CCC4=CC(=O)CC[C@@H]4[C@H]3CC[C@@]21C` [19-nor-17α-hydroxyprogesterone caproate], for which the “inhibition of nucleic acid synthesis, in words” value in data set [1] is on record as “Significant inhibition of nucleic acid synthesis”.
